# Like-named read-outs stand apart in the source and are kept apart here. Non-standard residues stand in square brackets, D forms with d. Residues, ends and D or L forms follow the SMILES beside them. ξ: configuration not given here. *: point of attachment. Tos = Cc1ccc(S(=O)(=O)*)cc1; NHPh = c1ccc(N*)cc1; ξA = CC(N)C(=O)O
# Assays:
# P. falciparum strain W2 = assay: In vitro antimalarial assay; assay type: cell-based; details: Plasmodium falciparum, W2; P. falciparum, 48 h, >99% of parasites inhibited from developing to schizonts
# [1] = tested on: Plasmodium berghei infection in mice; assay: In vivo antimalaria test; details: P. berghei infected mice; for inhibition in vivo at 100 mg/kg / inhibition in vivo at 200 mg/kg: Plasmodium berghei, oral
# Protocol: Experimental Design and Treatment of Mice. Methods of Peter et al.[30] and Kalra et al.[31] for antiplasmodial assay against Plasmodium berghei infection in mice with some modifications were employed. About eighty infected mice were randomly divided into five groups, each having […] mice. The inoculum was prepared from a donor mouse with rising parasitemia of 60.42%. After 7 days of infection, animals begin to receive treatment (100 and 200 mg/kg b wt.) of the synthesized compounds (7a–7n) for 12 days with constant check of the percentage of parasitemia after a 4-day interval. Artemisinin (100 and 200 mg/kg body weight.) was given to the other mice in group three as positive control, group four was not treated and group five was not infected. All the compounds and the drugs were given orally by using a standard intragastric tube. For all parasitemia determination, blood samples were collected from tail snip of each mouse and thin smears prepared and stained with 10% Giemsa solution. The uniform fields of each stained slide (for each mouse) were examined under microscope with an oil immersion objective of 100X magnification power and average percent of parasitemia was determined.
# To determine the in vivo activity, the compounds were tested against P. berghei NK(65 Strain) infection mice., the animals were obtained from Nigeria institute for Trypanosoma and onchocercarioses Research (NTIR) Vom, Plateau State Nigeria. The permission and approval for the use of animals in this experiment were granted by the Animal Ethics Committee, Federal College of Vetrenary Medical Laboratory, Vom, Plateau State. Method of Peter et al.[30], for antiplasmodial assay against P. berghei in mice with some modification were employed. Artemisimin was used as treated control of the experiments. The percentage inhibition of parasite multiplication was calculated comparing the treated group with untreated group by means of the following formula[39] [(A − B)/A] × 100; where A = parasitaemia in the untreated group and B = parasitemia in the test group. […] Most of the compounds were active against P. berghei after 7 days post-infection by reducing the parasiteamia by at least 40% when in a dose of 100 mg/kg (Table 5). The inhibition of parasitaemia increased on 12th day post infection for almost all the compounds. […] However in consideration of the compounds ability to inhibit parasitaemia to the control drug. […] These compounds should be considered for further studies because of its promising activities.
# B. subtilis = assay: Antimicrobial MIC, agar cup diffusion; assay type: cell-based; details: for MIC: Bacillus subtilis, B. subtilis, read-out: MIC (minimum inhibitory concentration); for activity against Bacillus compared with ciprofloxacin: in words
# E. coli = assay: Antimicrobial MIC, agar cup diffusion; assay type: cell-based; details: Escherichia coli, read-out: MIC (minimum inhibitory concentration)
# S. typhi = assay: Antimicrobial MIC, agar cup diffusion; assay type: cell-based; details: Salmonella enterica, read-out: MIC (minimum inhibitory concentration)
# K. pneumoniae = assay: Antimicrobial MIC, agar cup diffusion; assay type: cell-based; details: Klebsiella pneumoniae, read-out: MIC (minimum inhibitory concentration)
# C. albicans = assay: Antimicrobial MIC, agar cup diffusion; assay type: cell-based; details: Candida albicans, read-out: MIC (minimum inhibitory concentration)
# A. niger = assay: Antimicrobial MIC, agar cup diffusion; assay type: cell-based; details: Aspergillus niger, read-out: MIC (minimum inhibitory concentration)
# Liver function tests = assay type: in vivo; details: mice, 10 mg/kg
# From the text: (§1) Twenty-four hours before the injecting the compounds, the blood sample of five mice was taken and it was also taken after the last day of treatment, the animals were sacrificed by cervical dislocation and the blood samples were collected by heart puncture. The blood samples for haematological parameters (red blood cell (RBC) count, white blood cell (WBC) count, packed cell volume (PCV), and hemoglobin (HGB)) were collected into EDTA bottles and analyzed using an automated machine (Automated CBC Analyzer: Sysmex KX-21). The liver function tests carried out with the blood of the rats fed with the sulfonamide derivatives were aspartate aminotransperase (AST), alanine transaminase (ALT) and alkaline phosphatase (ALP). Standard laboratory procedure according to Reitman and Franke[32] was used for the determination of parameters.
# [2] = Renal or kidney function test; assay type: in vivo; details: mice, 10 mg/kg
# From the text: as §1, with “KX-21). Kidney” for “KX-21). The liver”, “derivatives were, creatinine” for “derivatives were aspartate aminotransperase (AST), alanine transaminase (ALT)”, “and albunim. The method reported by Kaplan” for “and alkaline phosphatase (ALP). Standard laboratory procedure according to Reitman”, “and Tengv[33]” for “and Franke[32]”, “used in” for “used for”, “of creatinine.” for “of parameters.”
# Haematological analysis = assay type: in vivo, mice
# From the text: Twenty-four hours before the injecting the compounds, the blood sample of five mice was taken and it was also taken after the last day of treatment, the animals were sacrificed by cervical dislocation and the blood samples were collected by heart puncture. The blood samples for haematological parameters (red blood cell (RBC) count, white blood cell (WBC) count, packed cell volume (PCV), and hemoglobin (HGB)) were collected into EDTA bottles and analyzed using an automated machine (Automated CBC Analyzer: Sysmex KX-21).
# The blood samples for haematological parameters (red blood cell (RBC) count, white blood cell (WBC) count, packed cell volume (PCV), and haemoglobin (HGB)) were collected into EDTA bottles and analyzed using an automated machine (Automated CBC Analyzer: Sysmex KX-21) (Table 8). From the analysis, even though there is a decrease in the value of RBC, PCV and HB, it is observed that there is no significant changes in the parameters that were analyzed for the control and the test compounds.
# [3] = 168 h, read-out: % inhibition 7 days post-treatment (100 mg/kg), day 7
# [4] = 168 h, read-out: % inhibition 7 days post-treatment (200 mg/kg), day 7
# [5] = 288 h, read-out: % inhibition 12 days post-treatment (100 mg/kg), day 12
# [6] = 288 h, read-out: % inhibition 12 days post-treatment (200 mg/kg), day 12
structure (smiles),measurement,setting,value
"C[C@@H]1CC[C@H]2[C@@H](C)C(=O)O[C@@H]3O[C@@]4(C)CC[C@@H]1[C@]32OO4 [Artemisinin, reference compound]",MIC,P. falciparum strain W2,0.72 µM
same,inhibition in vivo at 100 mg/kg,[1]; [3],75.7%
same,inhibition in vivo at 200 mg/kg,[1]; [4],78.9%
same,inhibition in vivo at 100 mg/kg,[1]; [5],86.2%
same,inhibition in vivo at 200 mg/kg,[1]; [6],82.3%
"CC(NS(=O)(=O)c1ccccc1)C(=O)NCC(=O)Nc1ccccc1 (stereo not shown) [Compound 7f, N-(2-oxo-2-(phenylamino)ethyl)-2-(phenylsulfonamido)propanamide]",MIC,B. subtilis,155 µg/mL
same,activity against Bacillus compared with ciprofloxacin,B. subtilis,greater activity against Bacillus than ciprofloxacin
same,MIC,E. coli,131 µg/mL
same,MIC,S. typhi,4680 µg/mL
same,MIC,K. pneumoniae,5010 µg/mL
same,MIC,C. albicans,214 µg/mL
same,MIC,A. niger,105 µg/mL
same,MIC,P. falciparum strain W2,2.32 µM
same,inhibition in vivo at 100 mg/kg,[1]; [3],38.2%
same,inhibition in vivo at 200 mg/kg,[1]; [4],71%
same,inhibition in vivo at 100 mg/kg,[1]; [5],41.9%
same,inhibition in vivo at 200 mg/kg,[1]; [6],73.3%
"Cc1ccc(S(=O)(=O)NC(C)C(=O)NCC(=O)Nc2ccccc2)cc1 (stereo not shown) [Compound 7m, 2–(4-methylphenylsulfonamido)-N-(2-oxo-2-(phenylamino)ethyl)propanamide] (Tos-[ξA]-Gly-NHPh)",MIC,B. subtilis,129 µg/mL
same,activity against Bacillus compared with ciprofloxacin,B. subtilis,greater activity against Bacillus than ciprofloxacin
same,MIC,E. coli,123 µg/mL
same,MIC,S. typhi,57 µg/mL
same,MIC,K. pneumoniae,138 µg/mL
same,MIC,C. albicans,7940 µg/mL
same,MIC,A. niger,56 µg/mL
same,MIC,P. falciparum strain W2,1.87 µM
same,inhibition in vivo at 100 mg/kg,[1]; [3],33.5%
same,inhibition in vivo at 200 mg/kg,[1]; [4],71.4%
same,inhibition in vivo at 100 mg/kg,[1]; [5],29.3%
same,inhibition in vivo at 200 mg/kg,[1]; [6],74%
"Cc1ccc(S(=O)(=O)NC(C)C(=O)NCC(=O)Nc2ccc(F)cc2)cc1 (stereo not shown) [Compound 7k, N-(2-((4-fluorophenyl)amino)-2-oxoethyl)-2–(4-methylphenylsulfonamido)propanamide]",MIC,B. subtilis,371 µg/mL
same,MIC,E. coli,316 µg/mL
same,MIC,S. typhi,3160 µg/mL
same,MIC,K. pneumoniae,79 µg/mL
same,MIC,C. albicans,63.1 µg/mL
same,MIC,A. niger,316 µg/mL
same,MIC,P. falciparum strain W2,0.53 µM
same,inhibition in vivo at 100 mg/kg,[1]; [3],40.4%
same,inhibition in vivo at 200 mg/kg,[1]; [4],54.9%
same,inhibition in vivo at 100 mg/kg,[1]; [5],44.3%
same,inhibition in vivo at 200 mg/kg,[1]; [6],56.4%
"Cc1ccc(S(=O)(=O)NC(C)C(=O)NCC(=O)Nc2cccc(F)c2)cc1 (stereo not shown) [Compound 7j, N-(2-((3-fluorophenyl)amino)-2-oxoethyl)-2–(4-methylphenylsulfonamido)propanamide]",MIC,B. subtilis,245 µg/mL
same,MIC,E. coli,275 µg/mL
same,MIC,S. typhi,129 µg/mL
same,MIC,K. pneumoniae,83 µg/mL
same,MIC,C. albicans,371 µg/mL
same,MIC,P. falciparum strain W2,0.88 µM
same,ability to inhibit parasitaemia compared to the control drug,[1]; in words,almost the same or better activity compared to the artemisinin
same,inhibition in vivo at 100 mg/kg,[1]; [3],77.9%
same,inhibition in vivo at 200 mg/kg,[1]; [4],77.4%
same,inhibition in vivo at 100 mg/kg,[1]; [5],82.7%
same,inhibition in vivo at 200 mg/kg,[1]; [6],73.5%
same,ALT,Liver function tests; After,25.5 µ/L
same,AST,Liver function tests; After,60.0 µ/L
same,Bilirubin,Liver function tests; After,0.2 mg/dL
same,T.P.,Liver function tests; After,5.8 g/dL
same,ALT,Liver function tests; Before,26.3 µ/L
same,AST,Liver function tests; Before,65.0 µ/L
same,Bilirubin,Liver function tests; Before,0.4 mg/dL
same,T.P.,Liver function tests; Before,6.0 g/dL
same,Albumin,[2]; After,4.0 g/dL
same,Creatinine,[2]; After,0.3 mg/dL
same,Albumin,[2]; Before,3.9 g/dL
same,Creatinine,[2]; Before,0.4 mg/dL
same,HB,Haematological analysis; After treatment,10.0 g/dL
same,PCV,Haematological analysis; After treatment,34%
same,RBC,Haematological analysis; After treatment,6.5 × 10^6 mm^3
same,WBC,Haematological analysis; After treatment,9.1 × 10^3 mm^3
same,HB,Haematological analysis; Before treatment,13.5 g/dL
same,PCV,Haematological analysis; Before treatment,39%
same,RBC,Haematological analysis; Before treatment,7.1 × 10^6 mm^3
same,WBC,Haematological analysis; Before treatment,8.0 × 10^3 mm^3
"OC(Cn1cncn1)(Cn1cncn1)c1ccc(F)cc1F [FLU, Fluconazole, reference compound]",MIC,C. albicans,21.7 µg/mL
same,MIC,A. niger,47.1 µg/mL
"CC(NS(=O)(=O)c1ccccc1)C(=O)NCC(=O)Nc1cccc(Cl)c1 (stereo not shown) [Compound 7a, N-(2-((3-chlorophenyl)amino)-2-oxoethyl)-2-(phenylsulfonamido)propanamide]",MIC,B. subtilis,219 µg/mL
same,MIC,E. coli,489 µg/mL
same,MIC,S. typhi,199 µg/mL
same,MIC,K. pneumoniae,251 µg/mL
same,MIC,C. albicans,56.1 µg/mL
same,MIC,A. niger,1580 µg/mL
same,MIC,P. falciparum strain W2,0.37 µM
same,inhibition in vivo at 100 mg/kg,[1]; [3],36.2%
same,inhibition in vivo at 200 mg/kg,[1]; [4],52.1%
same,inhibition in vivo at 100 mg/kg,[1]; [5],50%
same,inhibition in vivo at 200 mg/kg,[1]; [6],61.4%
"O=C(O)c1cn(C2CC2)c2cc(N3CCNCC3)c(F)cc2c1=O [CIP, Ciprofloxacin, reference compound]",MIC,B. subtilis,184 µg/mL
same,MIC,E. coli,131 µg/mL
same,MIC,S. typhi,128 µg/mL
same,MIC,K. pneumoniae,113 µg/mL

# From paper PMC6713104, “New peptide derived antimalaria and antimicrobial agents bearing sulphonamide moiety” (Journal of Enzyme Inhibition and Medicinal Chemistry, 2019)
